Test results as given in patent publication US10757937B2, “Sulfonamides that activate ABA receptors” (The Regents of the University of California, priority 2014, dated 2020).
Where two headings read alike, the source gives them in different places.

Key:
PYL2 = target: T1, PYL2 (Arabidopsis thaliana, UniProt O80992); assay: receptor-mediated PP2C (HAB1) inhibition in vitro assay; type: biochemical; settings: for remaining activity at 50 µM: 50 uM of the test compound
T1 construct: 6X-His; made in house; host or cells: E. coli BL21[DE3]pLysS
T1 sequence (O80992 1-190): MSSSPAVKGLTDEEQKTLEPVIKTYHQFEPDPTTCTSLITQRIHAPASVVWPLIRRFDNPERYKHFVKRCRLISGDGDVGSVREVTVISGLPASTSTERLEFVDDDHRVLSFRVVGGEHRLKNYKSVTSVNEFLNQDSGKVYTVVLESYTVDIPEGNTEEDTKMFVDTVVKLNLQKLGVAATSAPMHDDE
T1 sequence (Q9CAJ0 23-511 partner): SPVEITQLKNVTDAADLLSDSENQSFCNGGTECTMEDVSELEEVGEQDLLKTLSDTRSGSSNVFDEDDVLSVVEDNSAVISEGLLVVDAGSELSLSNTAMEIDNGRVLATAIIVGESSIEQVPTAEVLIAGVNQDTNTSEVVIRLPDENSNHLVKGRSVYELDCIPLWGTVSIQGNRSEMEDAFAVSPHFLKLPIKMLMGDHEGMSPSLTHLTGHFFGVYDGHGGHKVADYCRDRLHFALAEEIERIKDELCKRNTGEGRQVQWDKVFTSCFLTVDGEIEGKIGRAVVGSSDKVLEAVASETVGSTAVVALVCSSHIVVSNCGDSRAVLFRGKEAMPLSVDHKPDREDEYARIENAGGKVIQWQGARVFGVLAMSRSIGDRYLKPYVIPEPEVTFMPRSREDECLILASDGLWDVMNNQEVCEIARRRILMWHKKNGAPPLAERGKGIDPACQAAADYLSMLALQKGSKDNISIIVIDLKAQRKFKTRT
Procedure, shortened: (§1)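 Compounds, tested at 25 μM or 50 uM with ABA at 10 uM, were incubated with recombinant receptor and 50 nM GST-HAB1 (2:1 ratio) in MnCl2-containing Tris-OAc buffer, pH 7.9. Phosphatase activity was followed by 4-methylumbelliferyl-phosphate fluorescence.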

PYL1 = target: T2, PYL1 (Arabidopsis thaliana, UniProt Q8VZS8); assay: as above; type: biochemical; settings: for remaining activity at 50 µM: 50 uM of the test compound
T2 construct: 6X-His; made in house; host or cells: E. coli BL21[DE3]pLysS
T2 sequence (Q8VZS8 1-221): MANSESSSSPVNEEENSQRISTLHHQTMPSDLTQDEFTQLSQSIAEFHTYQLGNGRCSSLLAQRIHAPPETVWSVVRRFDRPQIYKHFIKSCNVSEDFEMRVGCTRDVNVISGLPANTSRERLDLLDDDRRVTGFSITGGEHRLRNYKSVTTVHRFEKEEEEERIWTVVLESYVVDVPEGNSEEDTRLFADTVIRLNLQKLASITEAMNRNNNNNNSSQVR
T2 sequence (Q9CAJ0 23-511 partner): T1 sequence (Q9CAJ0 23-511 partner)
Procedure, shortened: as §1

[1] = Table VII, read-out: PP2C Dose Curves PYL2 (IC50)
[2] = Table VII, read-out: PP2C Dose Curves PYL1 (IC50)
[3] = Table XII-B, calculated from dose curves, read-out: PP2C Activity (IC50 in uM) PYL2
[4] = Table XII-B, calculated from dose curves, read-out: PP2C Activity (IC50 in uM) PYL1

| IC50 (PYL2; [1]) [µM] | Compound | remaining activity at 50 µM (PYL2) [%] | IC50 (PYL2; [3]) [µM] | remaining activity at 50 µM (PYL1) [%] | IC50 (PYL1; [4]) [µM] | further results |
| --- | --- | --- | --- | --- | --- | --- |
|  | CC1=CC(=O)CC(C)(C)[C@@]1(O)/C=C/C(C)=C\C(=O)O [ABA, Abscisic acid, reference compound] |  |  |  |  | PP2C Activity PYL2 (PYL2; ABA (10 μM)): 6.1; PP2C Activity PYL1 (PYL1; ABA (10 μM)): 5.9 |
| > 50 | CC(C)(C(=O)NS(=O)(=O)Cc1ccc(C#N)cc1)c1ccc(Cl)cc1 [Compound 6] |  |  |  |  |  |
| > 50 | CC(C)(C(=O)NS(=O)(=O)Cc1ccc(C#N)cc1)c1ccc(Cl)c(Cl)c1 [Compound 7] |  |  |  |  |  |
| > 50 | CC(C)(C(=O)NS(=O)(=O)Cc1ccc(C#N)cc1)c1ccc(F)cc1 [Compound 13] |  |  |  |  |  |
| > 50 | CC(C)(C(=O)NS(=O)(=O)Cc1ccc(C#N)cc1)c1cccc(C#N)c1 [Compound 18] |  |  |  |  |  |
| > 50 | CCC(CC)(C(=O)NS(=O)(=O)Cc1ccc([N+](=O)[O-])cc1)c1ccccc1 [Compound 19] |  |  |  |  | IC50 (PYL1; [2]): > 50 µM |
|  | N#Cc1ccc(CS(=O)(=O)NC(=O)C2(c3ccc(F)cc3)CCCC2)cc1 [Compound 24] |  |  |  |  | IC50 (PYL1; [2]): > 50 µM |
| > 50 | Cc1ccccc1C1(C(=O)NS(=O)(=O)Cc2ccc(C#N)cc2)CC1 [Compound 44] |  |  |  |  |  |
|  | O=C(NS(=O)(=O)Cc1ccc([N+](=O)[O-])cc1)C1(c2ccccc2)CCCCC1 [Compound 63] | 115 | > 50 | 101 | > 50 |  |
|  | O=C(NS(=O)(=O)Cc1ccc(F)cc1)C1(c2ccccc2)CCCCC1 [Compound 64] | 107 | > 50 | 102 | > 50 |  |
|  | CC(C)COC(=O)NS(=O)(=O)Cc1ccc(C#N)cc1 [Compound 65, 2-Methylpropyl N-[(4-cyanophenyl)methanesulfonyl]carbamate] | 95.2 | > 50 | 91.7 | > 50 |  |
|  | CC1CCC(C(=O)NS(=O)(=O)Cc2ccc(C#N)cc2)(c2ccc(F)cc2)CC1 (stereo not drawn) [Compound 67, N-[(4-Cyanophenyl)methanesulfonyl]-1-(4-fluorophenyl)-4-methylcyclohexane-1-carboxamide] | 93 | > 50 | 98.3 | > 50 |  |
|  | CC1(C)CCC(C(=O)NS(=O)(=O)Cc2ccc(C#N)cc2)(c2ccc(F)cc2)CC1 [Compound 68, N-[(4-Cyanophenyl)methanesulfonyl]-1-(4-fluorophenyl)-4,4-dimethylcyclohexane-1-carboxamide] | 94.8 | > 50 | 96 | > 50 |  |
|  | N#Cc1ccc(CS(=O)(=O)NC(=O)C2(c3ccccc3)CCCCC2)cc1 [Compound 69, N-[(4-Cyanophenyl)methanesulfonyl]-1-phenylcyclohexane-1-carboxamide] | 96.2 | > 50 | 98.4 | > 50 |  |
|  | N#Cc1ccc(CS(=O)(=O)NC(=O)C(c2ccccc2)c2ccccc2)cc1 [Compound 71, N-[(4-Cyanophenyl)methanesulfonyl]-2,2-diphenylacetamide] | 102 | > 50 | 93.8 | > 50 |  |
|  | N#Cc1ccc(CS(=O)(=O)NC(=O)C(c2ccc(F)cc2)c2ccc(F)cc2)cc1 [Compound 72, N-[(4-Cyanophenyl)methanesulfonyl]-2,2-bis(4-fluorophenyl)acetamide] | 100 | > 50 | 94.2 | > 50 |  |
|  | N#Cc1ccc(CS(=O)(=O)NC(=O)C(C2CCCCC2)C2CCCCC2)cc1 [Compound 73, N-[(4-Cyanophenyl)methanesulfonyl]-2,2-cyclohexylacetamide] | 93.8 | > 50 | 95.5 | > 50 |  |
|  | N#Cc1ccc(CS(=O)(=O)NC(=O)C2(c3cccs3)CCCCC2)cc1 [Compound 75, N-[(4-Cyanophenyl)methanesulfonyl]-1-(thiophen-2-yl)cyclohexane-1-carboxamide] | 89.5 | > 50 | 95.5 | > 50 |  |
|  | N#Cc1ccc(CS(=O)(=O)NC(=O)C2(c3ccsc3)CCCCC2)cc1 [Compound 78, N-[(4-Cyanophenyl)methanesulfonyl]-1-(thiophen-3-yl)cyclohexane-1-carboxamide] | 81.2 | > 50 | 95.6 | > 50 |  |
|  | N#Cc1ccc(CS(=O)(=O)NC(=O)C2(c3ccsc3)CCCCC2)cc1Br [Compound 106, N-[(4-Cyano-3-bromophenyl)methanesulfonyl]-1-(thiophen-3-yl)cyclohexane-1-carboxamide] | 29.6 | 33 | 94.3 | > 50 |  |

| Compound | IC50 (PYL2; [1]) [µM] | remaining activity at 50 µM (PYL2) [%] | IC50 (PYL2; [3]) [µM] | remaining activity at 50 µM (PYL1) [%] | IC50 (PYL1; [4]) [µM] | further results |
| --- | --- | --- | --- | --- | --- | --- |
| N#Cc1ccc(CS(=O)(=O)NC(=O)C2(c3ccc(Br)cc3)CC2)cc1 [Compound 30] | > 50 |  |  |  |  |  |
| N#Cc1ccc(CS(=O)(=O)NC(=O)C2(c3cccc(C#N)c3)CC2)cc1 [Compound 50] | 54.7 |  |  |  |  |  |
